US9247759B2, “Identification of human T2R receptors that respond to bitter compounds that elicit the bitter taste in compositions, and the use thereof in assays to identify compounds that inhibit (block) bitter taste in compositions and use thereof” (SENOMYX, INC., priority 2007, dated 2016)
Read-outs that look alike come from different tables or passages of the source.

What was measured:
hT2R3 = hT2R3 (Homo sapiens (Human), UniProt Q9NYW6); test: hT2R panel inhibition, transient HEK293 G16g44, agonist Chloroquine pH6.5 50 μM; type: cell-based; conditions: HEK293, compound at 25 μM; receptor activated to EC80 with the corresponding agonist; read-out: screening result against bitter receptor 3
Chain of hT2R3 (Q9NYW6 whole entry): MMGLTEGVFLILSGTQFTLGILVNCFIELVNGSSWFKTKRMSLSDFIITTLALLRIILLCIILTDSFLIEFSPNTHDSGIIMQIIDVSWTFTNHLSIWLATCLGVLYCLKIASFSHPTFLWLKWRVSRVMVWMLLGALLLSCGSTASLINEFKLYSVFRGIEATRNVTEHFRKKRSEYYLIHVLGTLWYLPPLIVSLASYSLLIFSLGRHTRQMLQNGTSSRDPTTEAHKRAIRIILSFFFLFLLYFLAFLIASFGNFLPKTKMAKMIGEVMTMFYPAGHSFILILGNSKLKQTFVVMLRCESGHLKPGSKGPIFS
Summary of the method: (§1)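 One receptor per transfection, EC80 agonist, activity drop with compound = inhibition.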

hT2R4 = hT2R4 (Homo sapiens (Human), UniProt Q9NYW5); test: hT2R panel inhibition, transient HEK293 G16g44, agonist Chloroquine pH6.5 5 mM; type: cell-based; conditions: HEK293, compound at 25 μM; receptor activated to EC80 with the corresponding agonist; class symbols; read-out: screening result against bitter receptor 4
Chain of hT2R4 (Q9NYW5 whole entry): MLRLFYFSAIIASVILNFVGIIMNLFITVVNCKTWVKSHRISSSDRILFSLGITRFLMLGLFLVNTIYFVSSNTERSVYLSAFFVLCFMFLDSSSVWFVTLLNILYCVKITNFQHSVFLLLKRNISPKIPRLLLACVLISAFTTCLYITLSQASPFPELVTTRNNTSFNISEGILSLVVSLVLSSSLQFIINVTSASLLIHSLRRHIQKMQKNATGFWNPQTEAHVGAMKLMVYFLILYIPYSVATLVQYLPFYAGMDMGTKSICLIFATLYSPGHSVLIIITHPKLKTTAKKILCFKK
Summary of the method: as §1

hT2R5 = hT2R5 (Homo sapiens (Human), UniProt Q9NYW4); test: hT2R panel inhibition, transient HEK293 G16g44, agonist Picoline 10 mM; type: cell-based; conditions: HEK293, compound at 25 μM; receptor activated to EC80 with the corresponding agonist; read-out: screening result against bitter receptor 5
Chain of hT2R5 (Q9NYW4 whole entry): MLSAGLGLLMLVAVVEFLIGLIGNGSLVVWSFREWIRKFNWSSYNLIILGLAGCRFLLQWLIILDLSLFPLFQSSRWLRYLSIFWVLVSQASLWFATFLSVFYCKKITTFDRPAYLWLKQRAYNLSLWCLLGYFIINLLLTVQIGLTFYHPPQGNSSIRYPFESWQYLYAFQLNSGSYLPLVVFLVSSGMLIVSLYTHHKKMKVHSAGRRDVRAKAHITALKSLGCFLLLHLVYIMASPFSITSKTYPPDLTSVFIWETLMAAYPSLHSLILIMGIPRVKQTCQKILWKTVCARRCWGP
Summary of the method: as §1

hT2R7 = hT2R7 (Homo sapiens (Human), UniProt Q9NYW3); test: hT2R panel inhibition, transient HEK293 G16g44, agonist Chloroquine pH6.5 10 mM; type: cell-based; conditions: HEK293, compound at 25 μM; receptor activated to EC80 with the corresponding agonist; read-out: screening result against bitter receptor 7
Chain of hT2R7 (Q9NYW3 whole entry): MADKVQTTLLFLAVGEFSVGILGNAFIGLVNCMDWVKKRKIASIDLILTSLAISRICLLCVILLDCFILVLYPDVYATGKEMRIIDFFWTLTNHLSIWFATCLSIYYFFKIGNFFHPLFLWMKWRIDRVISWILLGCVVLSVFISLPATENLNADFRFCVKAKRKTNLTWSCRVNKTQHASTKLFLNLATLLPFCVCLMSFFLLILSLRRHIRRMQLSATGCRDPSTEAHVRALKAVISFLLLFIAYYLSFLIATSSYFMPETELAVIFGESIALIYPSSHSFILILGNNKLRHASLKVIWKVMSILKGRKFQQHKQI
Summary of the method: as §1

hT2R9 = hT2R9 (Homo sapiens (Human), UniProt Q9NYW1); test: hT2R panel inhibition, transient HEK293 G16g44, agonist Ofloxacin 1 mM; type: cell-based; conditions: HEK293, compound at 25 μM; receptor activated to EC80 with the corresponding agonist; read-out: screening result against bitter receptor 9
Chain of hT2R9 (Q9NYW1 whole entry): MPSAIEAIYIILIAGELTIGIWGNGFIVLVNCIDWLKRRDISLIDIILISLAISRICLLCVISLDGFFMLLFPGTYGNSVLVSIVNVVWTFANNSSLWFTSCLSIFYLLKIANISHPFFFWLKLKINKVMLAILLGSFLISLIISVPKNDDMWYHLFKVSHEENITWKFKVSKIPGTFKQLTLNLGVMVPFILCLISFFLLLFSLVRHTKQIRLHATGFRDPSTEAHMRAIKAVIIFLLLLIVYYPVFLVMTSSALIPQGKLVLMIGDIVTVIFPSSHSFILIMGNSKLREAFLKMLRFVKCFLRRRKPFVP
Summary of the method: as §1

hT2R10 = hT2R10 (Homo sapiens (Human), UniProt Q9NYW0); test: hT2R panel inhibition, transient HEK293 G16g44, agonist Strychnine 50 μM; type: cell-based; conditions: HEK293, read-out: screening result against bitter receptor 10, compound at 25 μM; receptor activated to EC80 with the corresponding agonist
Chain of hT2R10 (Q9NYW0 whole entry): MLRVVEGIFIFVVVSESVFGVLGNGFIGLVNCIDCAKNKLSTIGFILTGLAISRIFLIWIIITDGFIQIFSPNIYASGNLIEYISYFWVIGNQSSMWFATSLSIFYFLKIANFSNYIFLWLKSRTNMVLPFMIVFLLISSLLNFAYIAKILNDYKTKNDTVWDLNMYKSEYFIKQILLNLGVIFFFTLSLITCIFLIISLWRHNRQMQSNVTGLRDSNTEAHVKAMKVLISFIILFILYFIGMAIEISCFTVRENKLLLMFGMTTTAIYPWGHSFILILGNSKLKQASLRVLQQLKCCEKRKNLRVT

hT2R13 = hT2R13 (Homo sapiens (Human), UniProt Q9NYV9); test: hT2R panel inhibition, transient HEK293 G16g44, agonist Oxyphenonium 1 mM; type: cell-based; conditions: HEK293, compound at 25 μM; receptor activated to EC80 with the corresponding agonist; read-out: screening result against bitter receptor 13
Chain of hT2R13 (Q9NYV9 whole entry): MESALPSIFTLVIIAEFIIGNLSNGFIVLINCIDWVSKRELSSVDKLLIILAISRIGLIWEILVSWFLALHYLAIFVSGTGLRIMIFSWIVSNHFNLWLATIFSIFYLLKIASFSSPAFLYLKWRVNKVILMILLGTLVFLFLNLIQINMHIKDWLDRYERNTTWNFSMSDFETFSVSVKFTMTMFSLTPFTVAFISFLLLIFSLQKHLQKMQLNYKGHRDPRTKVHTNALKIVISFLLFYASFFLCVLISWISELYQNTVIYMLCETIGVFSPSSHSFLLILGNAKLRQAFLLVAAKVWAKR
Summary of the method: as §1

hT2R14 [1] = target: T1, hT2R14 (Homo sapiens (Human), UniProt Q9NYV8); test: hT2R panel inhibition, transient HEK293 G16g44, agonist Aristolochic Acid 2 μM; type: cell-based; conditions: HEK293, compound at 25 μM; receptor activated to EC80 with the corresponding agonist; read-out: screening result against bitter receptor 14
T1 sequence (Q9NYV8 whole entry): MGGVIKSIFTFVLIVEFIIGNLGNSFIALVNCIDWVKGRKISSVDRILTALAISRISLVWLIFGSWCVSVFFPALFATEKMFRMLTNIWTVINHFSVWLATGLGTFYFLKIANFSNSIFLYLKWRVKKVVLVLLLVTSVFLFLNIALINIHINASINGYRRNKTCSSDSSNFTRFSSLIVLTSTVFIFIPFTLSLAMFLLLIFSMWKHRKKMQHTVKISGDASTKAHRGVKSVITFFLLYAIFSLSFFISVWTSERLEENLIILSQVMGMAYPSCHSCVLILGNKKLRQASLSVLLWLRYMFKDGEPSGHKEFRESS
Summary of the method: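 Agonist challenge was at EC80, with 0.5 mM andrographolide on hT2R8 and 2 μM aristolochic acid on hT2R14. Inhibition was measured in functional assays in HEK293 cells that stably carry the promiscuous G protein G16g44 and were transiently transfected with the individual receptor.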

hT2R16 = hT2R16 (Homo sapiens (Human), UniProt Q9NYV7); test: hT2R panel inhibition, transient HEK293 G16g44, agonist Salicin 1 mM; type: cell-based; conditions: HEK293, compound at 25 μM; receptor activated to EC80 with the corresponding agonist; read-out: screening result against bitter receptor 16
Chain of hT2R16 (Q9NYV7 whole entry): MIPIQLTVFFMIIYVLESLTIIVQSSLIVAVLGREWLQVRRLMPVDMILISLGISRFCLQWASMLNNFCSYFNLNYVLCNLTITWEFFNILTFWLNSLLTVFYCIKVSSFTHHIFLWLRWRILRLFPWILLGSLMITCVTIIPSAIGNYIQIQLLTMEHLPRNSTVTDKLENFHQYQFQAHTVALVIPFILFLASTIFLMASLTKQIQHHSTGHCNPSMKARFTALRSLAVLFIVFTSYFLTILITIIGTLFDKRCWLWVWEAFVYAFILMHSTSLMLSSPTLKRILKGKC
Summary of the method: as §1

hT2R44 = test: hT2R panel inhibition, transient HEK293 G16g44, agonist Denatonium 0.5 μM; type: cell-based, human; conditions: compound at 25 μM; receptor activated to EC80 with the corresponding agonist
Summary of the method: as §1

hT2R51 = hT2R51 (Homo sapiens (Human), UniProt P59533); test: hT2R panel inhibition, transient HEK293 G16g44, agonist Prop 2.5 μM; type: cell-based; conditions: HEK293, compound at 25 μM; receptor activated to EC80 with the corresponding agonist; read-out: screening result against bitter receptor 51
Chain of hT2R51 (P59533 whole entry): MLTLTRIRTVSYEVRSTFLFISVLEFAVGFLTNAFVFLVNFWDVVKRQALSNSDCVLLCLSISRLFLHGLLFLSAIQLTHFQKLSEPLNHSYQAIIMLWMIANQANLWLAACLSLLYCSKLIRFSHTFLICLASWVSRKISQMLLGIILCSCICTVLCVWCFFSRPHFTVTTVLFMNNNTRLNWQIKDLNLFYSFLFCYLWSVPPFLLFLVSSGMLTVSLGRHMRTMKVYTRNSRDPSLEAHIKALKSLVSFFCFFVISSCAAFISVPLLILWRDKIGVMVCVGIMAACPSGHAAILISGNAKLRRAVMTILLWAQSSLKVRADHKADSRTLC
Summary of the method: as §1

hT2R54 = test: hT2R panel inhibition, transient HEK293 G16g44, agonist Ranitidine 5 mM; type: cell-based, human; conditions: compound at 25 μM; receptor activated to EC80 with the corresponding agonist
Summary of the method: as §1

hT2R55 = test: hT2R panel inhibition, transient HEK293 G16g44, agonist Cinchonine 150 μM; type: cell-based, human; conditions: compound at 25 μM; receptor activated to EC80 with the corresponding agonist
Summary of the method: as §1

hT2R61 = hT2R61 (Homo sapiens (Human), UniProt P59537); test: hT2R panel inhibition, transient HEK293 G16g44, agonist Aristolochic Acid 25 nM; type: cell-based; conditions: HEK293, compound at 25 μM; receptor activated to EC80 with the corresponding agonist; read-out: screening result against bitter receptor 61
Chain of hT2R61 (P59537 whole entry): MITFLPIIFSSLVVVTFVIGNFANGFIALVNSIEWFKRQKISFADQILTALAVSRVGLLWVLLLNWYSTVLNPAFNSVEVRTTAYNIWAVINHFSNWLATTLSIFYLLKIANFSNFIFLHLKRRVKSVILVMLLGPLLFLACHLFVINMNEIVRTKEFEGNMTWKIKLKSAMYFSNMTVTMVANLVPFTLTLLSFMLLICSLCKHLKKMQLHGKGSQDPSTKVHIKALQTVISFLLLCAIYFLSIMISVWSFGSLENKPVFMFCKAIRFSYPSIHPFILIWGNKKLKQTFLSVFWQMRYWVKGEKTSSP
Summary of the method: as §1

hT2R63 = test: hT2R panel inhibition, transient HEK293 G16g44, agonist Caffeine 1 mM or Andrographolide 100 μM; type: cell-based, human; conditions: compound at 25 μM; receptor activated to EC80 with the corresponding agonist
Summary of the method: as §1

hT2R64 = hT2R64 (Homo sapiens (Human), UniProt P59538); test: hT2R panel inhibition, transient HEK293 G16g44, agonist Aristolochic Acid 1 μM; type: cell-based; conditions: HEK293, compound at 25 μM; receptor activated to EC80 with the corresponding agonist; read-out: screening result against bitter receptor 64
Chain of hT2R64 (P59538 whole entry): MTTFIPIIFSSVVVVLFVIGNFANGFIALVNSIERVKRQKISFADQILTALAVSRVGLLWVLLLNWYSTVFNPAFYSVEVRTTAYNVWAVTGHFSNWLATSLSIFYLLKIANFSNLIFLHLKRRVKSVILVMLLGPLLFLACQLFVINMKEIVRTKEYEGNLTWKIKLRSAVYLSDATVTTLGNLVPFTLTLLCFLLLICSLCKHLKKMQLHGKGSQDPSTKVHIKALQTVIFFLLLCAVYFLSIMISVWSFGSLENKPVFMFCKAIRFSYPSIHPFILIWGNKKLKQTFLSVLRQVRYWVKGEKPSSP
Summary of the method: as §1

hT2R65 = test: hT2R panel inhibition, transient HEK293 G16g44, agonist Oleuropein 1 mM; type: cell-based, human; conditions: compound at 25 μM; receptor activated to EC80 with the corresponding agonist
Summary of the method: as §1

hT2R67 = test: hT2R panel inhibition, transient HEK293 G16g44, agonist Andrographolide 5 μM; type: cell-based, human; conditions: compound at 25 μM; receptor activated to EC80 with the corresponding agonist
Summary of the method: as §1

hT2R71 = hT2R71 (Homo sapiens (Human), UniProt P59536); test: hT2R panel inhibition, transient HEK293 G16g44, agonist Picric Acid 10 μM; type: cell-based; conditions: HEK293, compound at 25 μM; receptor activated to EC80 with the corresponding agonist; read-out: screening result against bitter receptor 71
Chain of hT2R71 (P59536 whole entry): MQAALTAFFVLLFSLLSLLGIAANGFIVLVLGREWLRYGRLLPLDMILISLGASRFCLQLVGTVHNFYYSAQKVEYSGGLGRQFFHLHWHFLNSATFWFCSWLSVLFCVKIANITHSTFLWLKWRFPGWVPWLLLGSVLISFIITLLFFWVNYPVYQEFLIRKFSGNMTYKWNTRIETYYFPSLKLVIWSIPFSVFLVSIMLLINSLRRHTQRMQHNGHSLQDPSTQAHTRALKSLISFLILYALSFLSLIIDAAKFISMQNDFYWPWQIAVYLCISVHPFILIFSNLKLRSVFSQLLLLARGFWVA
Summary of the method: as §1

hT2R8 = hT2R8 (Homo sapiens (Human), UniProt Q9NYW2); test: hT2R8 antagonist high-throughput FLIPR assay, stable cell line with G16g44, agonist andrographolide; type: cell-based
Chain of hT2R8 (Q9NYW2 whole entry): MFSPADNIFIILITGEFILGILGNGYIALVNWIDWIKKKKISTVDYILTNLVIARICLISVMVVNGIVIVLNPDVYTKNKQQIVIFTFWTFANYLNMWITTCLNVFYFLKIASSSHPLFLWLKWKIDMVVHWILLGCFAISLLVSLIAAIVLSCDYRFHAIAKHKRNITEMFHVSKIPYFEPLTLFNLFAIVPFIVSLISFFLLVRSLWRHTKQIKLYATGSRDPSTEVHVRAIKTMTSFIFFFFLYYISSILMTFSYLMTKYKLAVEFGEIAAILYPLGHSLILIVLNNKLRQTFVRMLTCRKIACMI
Summary of the method: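 Antagonist screen: compounds co-applied with agonist andrographolide at 200 μM, a dose giving 70–80% of maximal hT2R8 activation. Fluorescence measured by FLIPR in a stable HEK293 line expressing both hT2R8 and the promiscuous G16g44 protein.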

hT2R75 = hT2R75 (Homo sapiens (Human), UniProt P59540); test: hT2R panel inhibition, transient HEK293 G16g44, agonist Strychnine 1 μM; type: cell-based; conditions: HEK293, read-out: screening result against bitter receptor 75, compound at 25 μM; receptor activated to EC80 with the corresponding agonist
Chain of hT2R75 (P59540 whole entry): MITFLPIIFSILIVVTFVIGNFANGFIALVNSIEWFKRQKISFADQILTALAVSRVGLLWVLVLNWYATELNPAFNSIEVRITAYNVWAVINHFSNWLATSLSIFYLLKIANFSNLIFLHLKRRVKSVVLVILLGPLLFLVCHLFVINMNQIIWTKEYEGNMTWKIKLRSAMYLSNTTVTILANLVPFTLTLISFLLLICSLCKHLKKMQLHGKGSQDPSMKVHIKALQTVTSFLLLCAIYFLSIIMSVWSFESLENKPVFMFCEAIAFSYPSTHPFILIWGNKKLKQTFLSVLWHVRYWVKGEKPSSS

hT2R14 [2] = target: T1, hT2R14; test: hT2R14 antagonist high-throughput FLIPR assay, stable cell line with G16g44, agonist aristolochic acid; type: cell-based; conditions: read-out: IC50 on hT2R14 bitter receptor
Summary of the method: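 Compounds were co-applied with 3 μM aristolochic acid, a dose set to reach 70-80% of maximal hT2R14 activation. Read-out was FLIPR fluorescence in a stable HEK293 line co-expressing hT2R14 and G16g44.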

[3] = read-out: IC50 on hT2R8 bitter receptor

| Structure (SMILES) | inhibition at 25 µM (hT2R3) | inhibition at 25 µM (hT2R5) | inhibition at 25 µM (hT2R7) | inhibition at 25 µM (hT2R9) | inhibition at 25 µM (hT2R10) | inhibition at 25 µM (hT2R13) | inhibition at 25 µM (hT2R14 [1]) | inhibition at 25 µM (hT2R16) | inhibition at 25 µM (hT2R51) | screening result against bitter receptor 55 (hT2R55) | inhibition at 25 µM (hT2R61) | inhibition at 25 µM (hT2R64) | screening result against bitter receptor 65 (hT2R65) | screening result against bitter receptor 67 (hT2R67) | inhibition at 25 µM (hT2R71) | IC50 (hT2R8; [3]) | melting point | further results |
| --- | --- | --- | --- | --- | --- | --- | --- | --- | --- | --- | --- | --- | --- | --- | --- | --- | --- | --- |
| COc1ccc(CN(Cc2cccc(F)c2F)S(=O)(=O)c2ccc(C(=O)O)cc2)cc1 [Example 5-33, 4-(N-(2,3-difluorobenzyl)-N-(4-methoxybenzyl)sulfamoyl)benzoic acid] | 40 to 60% | 40 to 60% | 20 to 40% | 20 to 40% | 60 to 80% | 20 to 40% | > 80% | 40 to 60% | 40 to 60% | ++++ (80% or greater inhibition = ++++) | > 80% | 60 to 80% | +++ (60% to 80% inhibition = +++) | ++ (40% to 60% inhibition = ++) | 60 to 80% |  |  | inhibition at 25 µM (hT2R4): 40 to 60%; screening result against bitter receptor 44 (hT2R44): +++ (60% to 80% inhibition = +++); screening result against bitter receptor 54 (hT2R54): +++ (60% to 80% inhibition = +++); screening result against bitter receptor 63 (hT2R63): +++ (60% to 80% inhibition = +++) |
| COc1ccccc1CCN1CC(=O)N(c2cnn(Cc3c(C)noc3C)c2)C1=O [Example 10-76, 3-(1-((3,5-dimethylisoxazol-4-yl)methyl)-1H-pyrazol-4-yl)-1-(2-methoxyphenethyl)imidazolidine-2,4-dione] |  |  |  |  |  |  |  |  |  |  |  |  |  |  |  | 140 nM | 97 to 98 °C | IC50 (hT2R8; table after Example 10-97, read-out: hT2R8 IC50): 97 nM |
| Cc1noc(C)c1Cn1cc(NC(=O)c2scc(S(C)(=O)=O)c2Cl)cn1 [Example 4-2, 3-chloro-N-(1-((3,5-dimethylisoxazol-4-yl)methyl)-1H-pyrazol-4-yl)-4-(methylsulfonyl)thiophene-2-carboxamide] |  |  |  |  |  |  |  |  |  |  |  |  |  |  |  | 2090 nM | 202 to 204 °C |  |
| Cc1noc(C)c1Cn1cc(NC(=O)[C@@H](C)c2ccccc2)cn1 [Example 4-3, (S)—N-(1-((3,5-dimethylisoxazol-4-yl)methyl)-1H-pyrazol-4-yl)-2-phenylpropanamide] |  |  |  |  |  |  |  |  |  |  |  |  |  |  |  | 410 nM | 108 to 110 °C |  |
| COc1cccc(C(=O)Nc2cnn(Cc3c(C)noc3C)c2)c1 [Example 4-7, N-(1-((3,5-dimethylisoxazol-4-yl)methyl)-1H-pyrazol-4-yl)-3-methoxybenzamide] |  |  |  |  |  |  |  |  |  |  |  |  |  |  |  | 390 nM | 127 to 129 °C |  |
| COc1ccc(CN(Cc2ccccc2)S(=O)(=O)c2ccc(C(=O)O)cc2)cc1C [Example 5-89, 4-(N-benzyl-N-(4-methoxy-3-methylbenzyl)sulfamoyl)benzoic acid] | 40 to 60% | 20 to 40% | 40 to 60% | 20 to 40% | 60 to 80% | 20 to 40% | > 80% | 20 to 40% | > 80% | ++++ (80% or greater inhibition = ++++) | > 80% | 60 to 80% | ++++ (80% or greater inhibition = ++++) | + (20% to 40% inhibition = +) | 60 to 80% |  |  | screening result against bitter receptor 44 (hT2R44): +++ (60% to 80% inhibition = +++); screening result against bitter receptor 54 (hT2R54): + (20% to 40% inhibition = +); screening result against bitter receptor 63 (hT2R63): ++++ (80% or greater inhibition = ++++); inhibition at 25 µM (hT2R75): 20 to 40% |
| COc1ccc(CN(CC2CCCCC2)S(=O)(=O)c2ccc(C(=O)O)cc2)cc1 [Example 5-23, 4-(N-(cyclohexylmethyl)-N-(4-methoxybenzyl)sulfamoyl)-benzoic acid] | 60 to 80% | 40 to 60% | 40 to 60% | 40 to 60% | > 80% | 20 to 40% | > 80% | 60 to 80% | 40 to 60% | ++++ (80% or greater inhibition = ++++) | > 80% | 60 to 80% | ++++ (80% or greater inhibition = ++++) | ++ (40% to 60% inhibition = ++) | > 80% |  |  | IC50 (hT2R14 [2]): 3470 nM; inhibition at 25 µM (hT2R4): 40 to 60%; inhibition at 25 µM (hT2R75): 40 to 60% |
